How the values were obtained:
[1] = system: cancer patients being treated with alvocidib; test: Clinical trials using a TLS monitoring protocol described herein: deaths attributed to TLS; assay type: in vivo, human; conditions: to date
Description: Current protocols for monitoring the development of TLS in patients vary greatly due to interindividual clinician experience and different standards of care among institutions. The risk for and rapid development of TLS in cancer patients being treated with alvocidib presents a need for more precise but clinically practical TLS monitoring protocols that allow subjects to remain on alvocidib treatment and avoid dose-limiting TLS. To date, there have been no deaths attributed to TLS in clinical trials using a TLS monitoring protocol described herein.

[2] = system: patients having newly diagnosed AML; test: Example 5: alvocidib plus daunorubicin/cytarabine (ACD) with TLS monitoring, treatment-emergent adverse events classified as TLS; assay type: in vivo, human
Protocol: This study will evaluate the safety and efficacy of alvocidib in combination with cytarabine/daunorubicin (7+3) in patients with newly diagnosed AML. Treatment consists of increasing dose levels of alvocidib starting at 20 mg/m^2 as a 30-minute IV bolus followed by 30 mg/m^2 over 4 hours on days 1-3, cytarabine 100 mg/m^2/day by continuous IV infusion on days 5-11, followed by (e.g., followed about 30 minutes later by) daunorubicin 60 mg/m^2 IV on days 5-7. Reinduction therapy with alvocidib (same dose as induction) days 1-3, followed by cytarabine 100 mg/m^2/day continuous IV on days 5-9, and daunorubicin 45 mg/m^2 IV days 5-6 is recommended in patients with >10% and >5% cellularity and blasts, respectively.
For patients at high risk for TLS, including those with risk scores of greater than or equal to 2 according to Table 1, those with monocytic leukemia phenotype, or those with a history of FLT3 positive AML, monitoring will include: (i) obtaining a STAT serum potassium at the end of an alvocidib infusion; (ii) obtaining a serum potassium 2 hours after the end of an alvocidib infusion, (iii) obtaining a full TLS panel 4 hours after the end of an alvocidib infusion, and (iv) monitoring fibrinogen levels at baseline and then as clinically indicated. If there is evidence of clinically meaningful TLS, a TLS panel will be obtained every 2 hours during the first 24 hours after the end of an alvocidib infusion (assessment of LDH levels at least once every 24 hours is also recommended). If there is no evidence of clinically meaningful TLS, a TLS panel will be obtained every 4 hours during the first 24 hours after the end of an alvocidib infusion (assessment of LDH levels at least once every 24 hours is also recommended). If, after the first 24 hours after the end of an alvocidib infusion, there is no evidence of TLS, a TLS panel will be obtained approximately every 6 hours for the remainder of alvocidib treatment, and then every 12 hours after completion of alvocidib during daunorubicin and cytarabine treatment (assessment of LDH levels at least once every 24 hours is also recommended).
For patients not at high risk for TLS, tumor lysis evaluations will be monitored at the start of alvocidib treatment and approximately every 4 hours thereafter for 24 hours. Laboratory studies during this period will be run as a “STAT” to ensure the results are available in a timely manner. If there is no evidence of TLS during first the 24 hours, then tumor lysis evaluations will be monitored approximately every 6-8 hours for the remainder of alvocidib treatment, and then every 12 hours after the completion of alvocidib during cytarabine and daunorubicin treatment. Fibrinogen levels will be monitored at baseline and then as clinically indicated.
Patients were treated with ACD according to a treatment regimen similar to that described in Example 2, and monitored for TLS according to the monitoring protocols described in Example 2. Briefly, treatment consisted of increasing dose levels of alvocidib starting at 20 mg/m^2 as a 30-minute (±10 minutes) IV bolus followed by 30 mg/m^2 as a 4-hour (±15 minutes) IV infusion on days 1-3, followed by daunorubicin 60 mg/m^2 IV on days 5-7 via IV bolus of up to 15 minutes (±5 minutes) in duration each day, followed by (e.g., followed immediately by) cytarabine 100 mg/m^2/day by 24-hour (±2 hours) continuous IV infusion on days 5-11. Reinduction therapy with alvocidib (same dose as induction) days 1-3, followed by daunorubicin 45 mg/m^2 IV via IV bolus of up to 15 minutes (±5 minutes) in duration each day on days 5-6, followed by (e.g., followed immediately by) cytarabine 100 mg/m^2/day continuous, 24-hour IV infusion (±2 hours) on days 5-9, was recommended in patients with evidence of residual leukemia, defined as >5% bone marrow blasts plus >10% cellularity, based on day 14 (±3 days) bone marrow. […]

[3] = statement without data; prodrugs described in WO 2016/187316 and WO 2018/094275; cited from earlier work
[4] = Study Total, all dose levels (N = 31)
[5] = alvocidib 30/40 mg/m^2 (bolus/infusion) days 1-3 with daunorubicin and cytarabine (N = 3)
[6] = alvocidib 30/60 mg/m^2 (bolus/infusion) days 1-3 with daunorubicin and cytarabine (N = 22)

SMILES | deaths attributed to TLS [1] | Tumor lysis syndrome, treatment-emergent adverse events, number of patients [2, 4] | Tumor lysis syndrome, treatment-emergent adverse events, percent of patients [2, 4] [%] | Tumor lysis syndrome, treatment-emergent adverse events, number of patients ([2]; alvocidib 20/30 mg/m^2 (bolus/infusion) days 1-3 with daunorubicin and cytarabine (N = 3)) | Tumor lysis syndrome, treatment-emergent adverse events, number of patients [2, 5] | Tumor lysis syndrome, treatment-emergent adverse events, percent of patients [2, 5] [%] | Tumor lysis syndrome, treatment-emergent adverse events, number of patients ([2]; alvocidib 30/50 mg/m^2 (bolus/infusion) days 1-3 with daunorubicin and cytarabine (N = 3)) | Tumor lysis syndrome, treatment-emergent adverse events, number of patients [2, 6] | Tumor lysis syndrome, treatment-emergent adverse events, percent of patients [2, 6] [%] | oral bioavailability [3]
CN1CC[C@H](c2c(O)cc(O)c3c(=O)cc(-c4ccccc4Cl)oc23)[C@H](O)C1 [Alvocidib, 2-(2-chlorophenyl)-5,7-dihydroxy-8-[(3 S,4R)-3-hydroxy-1-methylpiperidin-4-yl]chromen-4-one] | no deaths | 8 | 25.8 | 0 | 1 | 33.3 | 0 | 7 | 31.8 | 
CN1CC[C@H](c2c(OP(=O)(O)O)cc(O)c3c(=O)cc(-c4ccccc4Cl)oc23)[C@H](O)C1 [Ia] |  |  |  |  |  |  |  |  |  | orally bioavailable

From patent publication US20210379042A1, “METHODS FOR MONITORING TUMOR LYSIS SYNDROME” (Sumitomo Dainippon Pharma Oncology, Inc., priority 2018, published 2021)
